Counter-ions that a name gives are not always drawn.
Legend:
[1] = system: P. falciparum strain Dd2; assay: 3H-hypoxanthine incorporation antiproliferation assay, P. falciparum Dd2; type: cell-based, Plasmodium falciparum; settings: multi-resistant P. falciparum strain Dd2
Procedure: Infected erythrocytes in ring stage (0.5% parasitemia, 2.5% hematocrit) in 96-well plates were exposed to the compounds for 48 h and then to radioactive hypoxanthine for 24 h. The amount of radioactivity in precipitable material served as an index of cell proliferation.

[2] = system: hematin polymerization; assay: Inhibition of the hematin polymerisation (β-hematin formation), UV-Vis absorbance at 405 nm; type: biochemical; settings: for Maximum inhibition (%) / IC50 drug (equiv.)/hematin (equiv.) ratio: inhibition of β-hematin formation; for IC50 drug (equiv.)/hematin (equiv.) ratio: absorbance at 405 nm
Procedure: The antischistosomial effect is measured by the evaluation of the ability of the compounds to inhibit hematin polymerization according to the biochemical assay previously developed by Ncokazi. K. K. Egan. T. J. Anal. Biochem. 2005, 338, 306-319 adapted to the compounds of the present invention. The assays were monitored by UV-Vis absorption spectrophotometry and IC50 values for inhibition of β-hematin formation were determined from the absorbance at 405 nm versus the drug (equiv.)/hematin (equiv.) ratio.

[3] = Complex formation with hematin (apparent association constants); type: binding; settings: pH 7.5; 1:1 charge-transfer complexes with hematin
From the text: Both 3-benzylnaphtoquinone derivatives form 1:2 or 2:1 complexes with hematin displaying apparent association constants at pH 7.5 of about 10^11-10^13 M^−1. Also the benzoxanthone derivative LJ144K form 1:1 charge-transfer complexes with hematin displaying apparent association constants at pH 7.5 of about 10^5-10^6 M^−1.

[4] = system: P. falciparum strain 3D7; assay: Antimalarial assay, chloroquine-sensitive P. falciparum 3D7; type: cell-based, Plasmodium falciparum; settings: chloroquine-sensitive strain 3D7

Compound | melting point | further results
CC1=C(Cc2ccc(Br)cc2)C(=O)c2cc(C)c(C)cc2C1=O [Compound 12.28, 2,6,7-trimethyl-3-(4-bromobenzyl)naphthalene-1,4-dione] | 129 to 130 °C | –
COc1ccc2c(c1)C(=O)C(C)=C(Cc1ccc(C(F)(F)F)cc1)C2=O [Compound 12.8] | 137 to 139 °C | –
COc1ccc2c(c1)C(=O)C(Cc1ccc(Br)cc1)=C(C)C2=O [Compound 12.1, 3-(4-bromobenzyl)-6-methoxy-2-methylnaphthalene-1,4-dione] | 135 to 137 °C | –
CC1=C(Cc2ccc(C(F)(F)F)cc2)C(=O)c2cc(C)c(C)cc2C1=O [Compound 12.27, 2,6,7-trimethyl-3-(4-(trifluoromethyl)benzyl)naphthalene-1,4-dione] | 143 to 144 °C | –
CC1=C(Cc2ccc(C(F)(F)F)cc2)C(=O)c2ccc(OS(=O)(=O)C(F)(F)F)cc2C1=O (as salt: methanesulfonate) [Compound 12.30, 7-methyl-5,8-dioxo-6-(4-(trifluoromethyl)benzyl)-5,8-dihydronaphthalen-2-yl trifluoromethanesulfonate] | 87 to 88 °C | –
COc1ccc2c(c1)C(=O)C(Cc1ccc(C(F)(F)F)cc1)=C(C)C2=O [Compound 12.2] | 86 to 87 °C | –
CC1=C(Cc2ccc(C(F)(F)F)cc2)C(=O)c2cccc(C)c2C1=O [Compound 12.25, 2,8-dimethyl-3-(4-(trifluoromethyl)benzyl)naphthalene-1,4-dione] | 98 to 99 °C | –
CC1=C(Cc2ccc(Br)cc2)C(=O)c2ccc(C)cc2C1=O [Compound 12.24, 2,7-dimethyl-3-(4-bromobenzyl)naphthalene-1,4-dione] | 122 to 123 °C | –
COc1cc2c(cc1OC)C(=O)C(Cc1ccc(Br)cc1)=C(C)C2=O [Compound 12.12, 6,7-dimethoxy-2-methyl-3-(4-bromobenzyl)naphthalene-1,4-dione] | > 200 °C (dec.) | –
CC1=C(Cc2ccc(C(F)(F)F)cc2)C(=O)c2cc(OS(=O)(=O)C(F)(F)F)ccc2C1=O (as salt: methanesulfonate) [Compound 12.29, 6-methyl-5,8-dioxo-7-(4-(trifluoromethyl)benzyl)-5,8-dihydronaphthalen-2-yl trifluoromethanesulfonate] | 127 °C | –
COc1cc(CC2=C(C)C(=O)c3cc(OC)ccc3C2=O)cc(OC)c1 [Compound 12.9, 3-(3,5-dimethoxybenzyl)-7-methoxy-2-methylnaphthalene-1,4-dione] | 151 to 153 °C | –
CC1=C(Cc2ccncc2)C(=O)c2ccccc2C1=O [LJ186] | – | antimalarial activity relative to chloroquine and P_TM29 [1]: more active than chloroquine or as active as P_TM29; inhibition of the β-hematin polymerization [2]: very potent inhibitors; Maximum inhibition (%) [2]: 80%; IC50 drug (equiv.)/hematin (equiv.) ratio [2]: 4.2 drug (equiv.)/hematin (equiv.) ratio
CC1=C(Cc2ccc(Br)cc2)C(=O)c2cccc(C)c2C1=O [Compound 12.26, 2,8-dimethyl-3-(4-bromobenzyl)naphthalene-1,4-dione] | 116 to 118 °C | –
Cc1c(O)c2ccccc2c2oc3cc(C(F)(F)F)ccc3c(=O)c12 [LJ144K, 5-hydroxy-6-methyl-10-(trifluoromethyl)-7H-benzo[c]xanthen-7-one] | – | apparent association constants with hematin [3]: 10^5-10^6 M^−1; Maximum inhibition (%) [2]: 75%; IC50 drug (equiv.)/hematin (equiv.) ratio [2]: 2.5 drug (equiv.)/hematin (equiv.) ratio; IC50 values, antimalarial effects [4]: submicromolar range
CC1=C(Cc2ccc(F)c(Cl)c2)C(=O)c2ccc(F)cc2C1=O [Compound 12.17, 2-(3-chloro-4-fluorobenzyl)-6-fluoro-3-methylnaphthalene-1,4-dione] | 117 to 118 °C | –
CC1=C(Cc2ccc(C(F)(F)F)cc2)C(=O)c2c(C)cccc2C1=O [Compound 12.19, 2,5-dimethyl-3-(4-(trifluoromethyl)benzyl)naphthalene-1,4-dione] | 87 to 88 °C | –
COc1cc2c(cc1OC)C(=O)C(Cc1ccc(C(F)(F)F)cc1)=C(C)C2=O [Compound 12.11, 6,7-dimethoxy-2-methyl-3-(4-(trifluoromethyl)benzyl)naphthalene-1,4-dione] | > 200 °C (dec.) | –
CC1=C(Cc2ccc(Br)cc2)C(=O)c2ccc(F)cc2C1=O [Compound 12.16, 2-(4-bromobenzyl)-6-fluoro-3-methylnaphthalene-1,4-dione] | 107 °C | –
COc1cc(CC2=C(C)C(=O)c3ccc(OC)cc3C2=O)cc(OC)c1 [Compound 12.4, 3-(3,5-dimethoxybenzyl)-6-methoxy-2-methylnaphthalene-1,4-dione] | 149 °C | –
COc1ccc(OC)c(CC2=C(C)C(=O)c3cc(OC)c(OC)cc3C2=O)c1 [Compound 12.14, 2-14(2,5-dimethoxybenzyl)-6,7-dimethoxy-3-methylnaphthalene-1,4-dione] | 166 to 167 °C | –
CC1=C(Cc2ccc(C(F)(F)F)cc2)C(=O)c2ccc(C)cc2C1=O [Compound 12.23, 2,7-dimethyl-3-(4-(trifluoromethyl)benzyl)naphthalene-1,4-dione] | 102 °C | –
CC1=C(Cc2ccc(F)c(C(F)(F)F)c2)C(=O)c2ccc(F)cc2C1=O [Compound 12.18, 6-fluoro-2-(4-fluoro-3-(trifluoromethyl)benzyl)-3-methylnaphthalene-1,4-dione] | 106 to 107 °C | –
CC1=C(Cc2ccc(Br)cc2)C(=O)c2cc(F)ccc2C1=O [Compound 12.5, 3-(4-bromobenzyl)-6-fluoro-2-methylnaphthalene-1,4-dione] | 127 to 129 °C | –
COc1cc(CC2=C(C)C(=O)c3cc(OC)c(OC)cc3C2=O)cc(OC)c1 [Compound 12.13, 2-(3,5-dimethoxybenzyl)-6,7-dimethoxy-3-methylnaphthalene-1,4-dione] | 168 to 169 °C | –
CC1=C(Cc2ccc(Br)cc2)C(=O)c2c(C)cccc2C1=O [Compound 12.20, 3-(4-bromobenzyl)-2,5-dimethylnaphthalene-1,4-dione] | 149 to 150 °C | –
COc1ccc2c(c1)C(=O)C(C)=C(Cc1ccc(Br)cc1)C2=O [Compound 12.7, 3-(4-bromobenzyl)-7-methoxy-2-methylnaphthalene-1,4-dione] | 149 to 151 °C | –

Source: US9409879B2, “Total synthesis of redox-active 1.4-naphthoquinones and their metabolites and their therapeutic use as antimalarial and schistomicidal agents” (CENTRE NATIONAL DE LA RECHERCHE SCIENTIFIQUE, priority 2011, dated 2016)
